Measurements: patent EP4745145A1, “SALT OF THIAZOLOPYRAZINE COMPOUND OR CRYSTAL THEREOF AND USE THEREOF” (Simcere Zaiming Pharmaceutical Co., Ltd., priority 2023, dated 2025)

Columns and labels:
POLQ = target: T1, POLQ (Homo sapiens, UniProt O75417); test: POLQ enzyme activity inhibition experiment (ATPase, NADH-coupled); assay type: biochemical
T1 construct: the N-terminal active peptide segment of POLQ with ATPase activity (M1-N899) is co-incubated with the compound; purchased Pharmaron
Procedure: Brief introduction to experimental principle: After the N-terminal active peptide segment of POLQ with ATPase activity (M1-N899) is co-incubated with the compound, this peptide segment reacts with substrate dT50 under the action of ATP to generate ADP. The generated ADP then participates in the subsequent NADH oxidation-coupled enzymatic reaction, catalyzing the conversion of NADH to NAD^+. The reduction in the OD value of NADH at 340 nm was measured using the Envision microplate reader from Perkin Elmer to reflect enzyme activity.
Experimental methods: The POLQ enzyme was diluted to 100 nM with a reaction buffer (20 mM Tris HCl (pH 7.80), 80 mM KCl, 10 mM MgCl2, 1 mM DTT, 0.01% w/v bovine serum albumin, 0.01% v/v Tween-20, 5% v/v glycerol). The test compound was diluted to different concentrations with dimethyl sulfoxide (DMSO) using the Echo 650 pipetting system and transferred to a 384-well plate, 20 µL/well of 100 nM POLQ was added, and the mixture was incubated at room temperature for 15 min. […] After the 384-well plate was reacted at room temperature for 20 min, the OD value at 340 nm was read using an Envision microplate reader.
Inhibition rates were calculated and fitted using XLfit software to give the IC50 of the compound. […]

hepatocytes = test: Metabolic stability in hepatocytes; assay type: in vitro ADME; conditions: hepatocytes of various species
Procedure: The metabolic stability of the compounds of the present disclosure in hepatocytes was determined by the following test method.
• 1. Human hepatocytes (Biopredic BQHPCH10), cynomolgus monkey hepatocytes (RILD HP-SXH-02M), Beagle dog hepatocytes (BioIVT M00205), SD rat hepatocytes (BioIVT M00005), and CD-1 mouse hepatocytes (BioIVT M00505) • 2. AOPI stain (Nexcelom 200710-01-01) • 3. Dexamethasone (NIFDC 100129-201506) • 4. DPBS (10×) (Gibco by Life Technologies 2060570) • 5. Fetal bovine serum (FBS) (Corning 35081001) • 6. GlutaMAXTM-1 (100×) (Gibco by Life Technologies 2186980) • 7. HEPES (Sigma RNBJ1276) • 8. Human recombinant insulin (Gibco by Life Technologies 2090407) • 9. Isotonic Percoll (GE Healthcare 10288259) • 10. Verapamil (Sigma MKBV4993V) • 11. Williams' Medium E (Sigma RNBJ3314) • 12. […]
All data were calculated by Microsoft Excel software. The peak area was detected through an extracted ion chromatogram. The in vitro half-life (t1/2) of the compound was determined by performing linear fitting of the natural logarithm of elimination percent of the compound and time.
In vitro half-life (t1/2) was calculated by the slope: in vitro t1/2 = 0.693/k [formula]
The in vitro intrinsic clearance (unit: µL/min/mg protein) was calculated using the following formula: in vitro CLint = k × volume of incubation (μL)/amount of proteins (mg) [formula] […]

T1 sequence (O75417 1-899): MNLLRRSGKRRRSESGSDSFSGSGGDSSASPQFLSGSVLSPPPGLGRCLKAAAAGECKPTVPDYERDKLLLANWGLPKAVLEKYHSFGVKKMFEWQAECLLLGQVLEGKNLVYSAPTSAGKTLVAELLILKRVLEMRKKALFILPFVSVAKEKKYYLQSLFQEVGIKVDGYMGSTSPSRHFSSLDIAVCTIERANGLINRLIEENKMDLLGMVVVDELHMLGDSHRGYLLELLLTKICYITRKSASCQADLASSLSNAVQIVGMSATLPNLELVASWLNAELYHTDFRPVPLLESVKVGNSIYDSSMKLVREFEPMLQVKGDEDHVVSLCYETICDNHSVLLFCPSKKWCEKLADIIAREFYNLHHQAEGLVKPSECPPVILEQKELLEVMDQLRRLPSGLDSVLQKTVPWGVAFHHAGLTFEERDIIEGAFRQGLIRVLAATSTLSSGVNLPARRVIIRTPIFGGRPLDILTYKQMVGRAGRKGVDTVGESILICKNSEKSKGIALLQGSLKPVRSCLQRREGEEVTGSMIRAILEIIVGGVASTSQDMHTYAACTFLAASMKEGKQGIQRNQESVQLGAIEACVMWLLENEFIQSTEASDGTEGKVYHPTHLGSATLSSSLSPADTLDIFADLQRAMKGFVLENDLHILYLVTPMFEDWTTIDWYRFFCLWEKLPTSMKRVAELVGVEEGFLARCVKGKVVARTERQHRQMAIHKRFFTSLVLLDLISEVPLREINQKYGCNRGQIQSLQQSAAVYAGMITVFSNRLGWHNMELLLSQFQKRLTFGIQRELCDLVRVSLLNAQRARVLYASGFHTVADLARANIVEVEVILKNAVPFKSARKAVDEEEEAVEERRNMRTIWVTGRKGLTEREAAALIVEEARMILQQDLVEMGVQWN

COc1ccc(Cl)cc1-c1cc(C)ncc1C(=O)Nc1nc2ncc(-c3ccc(C#N)cc3)nc2s1 [Compound of formula I, 4-(5-chloro-2-methoxyphenyl)-N-[6-(4-cyanophenyl)thiazolo[4,5-b]pyrazin-2-yl]-6-methylnicotinamide]
IC50 (POLQ): < 100 nM
metabolic stability in hepatocytes (hepatocytes): metabolically stable
